# “Also recorded” adds a separate entry of the source.
# Experiments:
# [1] = system: S11 cells and vector control cells; test: caspase activation (DEVD cleavage) in S11 and vector control cells; assay type: cell-based
# Protocol: (§1) Caspases are apoptosis-activated proteases, and caspase induction in cells is often indicative that the cells are undergoing programmed cell death (apoptosis). Apoptosis can be induced by a variety of compounds, including etoposide. S11 or vector control cells were plated at 30,000 cells/well in 96 well plates and grown for 20 hours. […] At this time, media was aspirated and caspase activity was measured by addition of 23 uM DEVD, a peptide that is fluorescent when cleaved by caspase 3, in PBS along with 0.03% digitonin. Fluorescence was measured in an Fmax™ 96-well plate reader (Molecular Devices, Sunnyvale, Calif.) using a kinetic assay. Total number of cells was determined using propidium iodide staining and used to normalize for total number of cells in each well.
# Etoposide and ceramide treatments were as described above.
# [2] = system: inducible PBzR overexpressing SH-SY5Y-derived cells (IPBR-1); test: apoptogen-driven caspase activation in tetracycline-inducible PBzR overexpressing SH-SY5Y-derived cells; assay type: cell-based
# Protocol: as §1
# The effect of tetracycline induced PBzR overexpression on apoptogen-driven (C2-ceramide, 80 μM, 8 hrs) caspase activation was examined in a selected, oligoclonal tetracycline-inducible PBzR overexpressing SH-SY5Y-derived cell line (FIG. 20). […] The caspase response also correlated with cell viability determinations (FIG. 22), consistent with presumed caspase roles in apoptotic cascades. […] Western blot analysis of IPBR-1 mitochondrial fractions isolated on metrizamide gradients and normalized on the basis of mitochondrial ETC Complex IV activity (as described above) confirmed a dramatic increase in PBzR expression. No discernible change in Bcl-2 expression levels, however, accompanied the induction of PBzR overexpression.
# [3] = PK-11195 induced cell death, propidium iodide staining, S11 cells; assay type: cell-based; settings: human, read-out: percent of non-viable cells
# Protocol: (§2) This provides apparent evidence for a functional link between PBR and Bcl-2. […] Cell viability was determined by propidium iodide staining cells and quantifying fluorescence with an Fmax™ plate reader (Molecular Devices, Sunnyvale, Calif.) according to the manufacturer's instructions.
# [4] = molecular target: T1, peripheral benzodiazepine receptor (PBR, PBzR) (Homo sapiens, UniProt P30536); test: [3H]PK-11195 saturation binding to cell membranes
# T1 construct: expressed in transfected cells; membranes
# [5] = PK-11195 induced cell death, propidium iodide staining, vector control cells; assay type: cell-based; settings: human, vector control cells (low Bcl-2 expression), read-out: percent of non-viable cells
# Protocol: as §2
# S11 mitochondria = test: cytochrome C release upon calcium induced permeability transition; assay type: cell-based
# PBzR = molecular target: T2, PBzR (Homo sapiens, UniProt P30536); test: displacement of [3H]PK-11195 binding to the S11 PBzR overexpressing clone; settings: read-out: IC50, displacement of [3H]PK-11195; 6 μg S11 protein per data point
# T2 construct: expressed in transfected cells; host or cells: S11, clonal SH-SY5Y-derived stably transfected PBzR-overexpressing line
# Protocol: Additional experiments were performed to further characterize the binding of ligand to PBzR.
# The S11 cell line was used as a source of PBzR.
# IPBR-1 cells = test: PBzR ligand effect on doxorubicin induced caspase activation in IPBR-1 cells; assay type: cell-based; settings: induced but not uninduced IPBR-1 cells, dose-dependent
# Text: Accordingly, the present invention provides the unexpected finding that peripheral benzodiazepine ligands may be distinguished on the basis of whether they preferentially alter apoptosis, and whether they preferentially alter a mitochondrial function. Data also indicate that benzodiazepine-related PBR ligands can act as effective anti-apoptotic agents, which may be of benefit in the treatment of certain neuropathologies and/or in chronic inflammatory conditions.
# T1 sequence (P30536 whole entry): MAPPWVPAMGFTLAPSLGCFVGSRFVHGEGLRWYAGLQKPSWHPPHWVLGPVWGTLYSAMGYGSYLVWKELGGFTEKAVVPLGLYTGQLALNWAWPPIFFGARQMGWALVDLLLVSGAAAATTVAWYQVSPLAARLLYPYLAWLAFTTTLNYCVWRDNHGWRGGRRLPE
# T2 sequence (P30536 whole entry): as above
smiles,measurement,setting,value
CCCCCCCCCCCCC/C=C/[C@@H](O)[C@H](CO)NC(C)=O [C2-ceramide],"caspase activation, S11 cells versus vector controls",[1]; concentrations of 80 and 100 μM,much greater activation of caspase in vector control cells than in the S11 cells
same,"caspase activation, induced versus uninduced cells","[2]; oligoclonal tetracycline-inducible line, 80 μM, 8 hrs",resistance to ceramide-stimulated caspase activation
"CCC(C)N(C)C(=O)c1cc2ccccc2c(-c2ccccc2Cl)n1 (stereo not drawn) [PK-11195, 1-(2-chlorophenyl)-N-methyl-N-(1-methylpropyl)-3-isoquinolinecarboxamide]","cytotoxicity at 24 h, 100 µM",[3],< 20%
same,Bmax (pmol/mg),[4]; Jurkat Vector,Not detected
same,Bmax,[4]; S11,43 pmol/mg
same,receptor concentration from saturation binding curves,[4]; S11 SY5Y clone / pooled over-expressors as worded,25 pmol/mg
same,Bmax,[4]; SH-SY5Y Vector,1.8 pmol/mg
same,binding maximum (BMAX),[4]; native SY5Y cells,1.8 pmol/mg
same,binding maximum (BMAX),[4]; stable PBR expressing SY5Y cells,25 ± 1.5 pmol/mg
same,"cytotoxicity at 24 h, 20 µM",[5]; 20 μM,~10%
same,"cytotoxicity at 24 h, 100 µM",[5]; 100 μM,~40%
same,release of cytochrome C from mitochondria,S11 mitochondria,caused a release of cytochrome C
"CN1C(=O)CN=C(c2ccc(Cl)cc2)c2cc(Cl)ccc21 [RO 05-4864, 4′chlorodiazepam]",IC50,PBzR,36.8 nM
same,effect on doxorubicin induced activation of caspase,IPBR-1 cells,protective effect against the doxorubicin induced activation of caspase
"Nc1c[n+](N2CCOCC2)no1.[Cl-] [SIN-1, 3-morpholinosydnonimine, HCl]","caspase activation, induced versus uninduced cells","[2]; IPBR-1, 100-400 μM",resistance to caspase activation
COc1cccc2c1C(=O)c1c(O)c3c(c(O)c1C2=O)C[C@@](O)(C(=O)CO)C[C@@H]3O[C@H]1C[C@H](N)[C@H](O)[C@H](C)O1 [doxorubicin],"caspase activation, induced versus uninduced cells","[2]; IPBR-1, 4 μM, 8 hrs",moderated the degree of caspase activation
COc1cc([C@@H]2c3cc4c(cc3[C@@H](O[C@@H]3O[C@@H]5CO[C@@H](C)O[C@H]5[C@H](O)[C@H]3O)[C@H]3COC(=O)[C@H]23)OCO4)cc(OC)c1O [etoposide],"caspase activation, S11 cells versus vector controls","[1]; etoposide 2-6 μM, six hours",caspase activation occurred at a higher rate in S11 cells than in vector controls; also recorded: greater activation of caspase in S11 cells than in vector controls
C/C=C(/C)C(=O)O[C@H]1C(C)=C2[C@H]([C@@H]1OC(=O)CCCCCCC)[C@@](C)(OC(C)=O)C[C@H](OC(=O)CCC)[C@@]1(O)[C@H]2OC(=O)[C@@]1(C)O [thapsigargin],"caspase activation, induced versus uninduced cells",[2]; tetracycline-induced IPBR-1,no reduction in caspase activation

# Reference: patent publication US20020039746A1, “Methods for identifying peripheral benzodiazepine receptor binding agents” (priority 2000, published 2002)
